This note sets out measurements from ChEMBL document CHEMBL3217493, “Approaches to discover non-ATP site kinase inhibitors” (Medchemcomm, 2013).

Usually Kd stands for the constant that tells how readily two partners part at equilibrium.

This assay addresses Mitogen-activated protein kinase 1 (Homo sapiens, UniProt P28482). As to the kind of experiment: Binding affinity to ERK2 (unknown origin).

Chain of Mitogen-activated protein kinase 1 (P28482 whole entry): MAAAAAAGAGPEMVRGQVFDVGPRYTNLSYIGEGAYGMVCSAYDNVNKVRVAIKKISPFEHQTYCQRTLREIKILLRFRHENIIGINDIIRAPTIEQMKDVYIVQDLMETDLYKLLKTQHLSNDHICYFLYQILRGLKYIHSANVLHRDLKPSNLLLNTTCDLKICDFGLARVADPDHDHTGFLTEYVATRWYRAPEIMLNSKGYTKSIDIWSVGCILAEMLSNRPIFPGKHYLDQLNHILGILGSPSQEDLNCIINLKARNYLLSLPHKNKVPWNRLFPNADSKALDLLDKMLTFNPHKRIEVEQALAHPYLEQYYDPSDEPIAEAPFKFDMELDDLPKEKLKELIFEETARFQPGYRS

Turning to `COc1ccc(/C=C2\SC(=O)N(CCN)C2=O)cc1`, the dissociation constant Kd was determined as 5 µM.
